Test results taken from patent US20240294478A1, “ANTI-CANCER COMPOUNDS AND METHODS OF USE” (YALE UNIVERSITY, priority 2021, published 2024).

Experiments:
[1] = Maximum tolerated dose study in healthy mice; type: in vivo
Excerpt: FIGS. 10A-10G. KL-50 is efficacious in an LN229 MGMT−/MMR− intracranial model and is well tolerated with limited myelosuppression at supratherapeutic doses. […] (FIG. 10B) Mean body change with SEM of mice during maximum tolerated dose experiment in non-tumor bearing mice. (FIGS. 10C-10G) Complete blood counts for mice pre-treatment and 7 days post-treatment with escalations of single dose KL-50 delivered PO. WBC lower limit of normal (LLN): 2.2 K/L; Neutrophils LLN: 0.42 K/L; Lymphocyte LLN: 1.7 K/L; RBC LLN: 3.47 M/L; Platelet LLN: 155 K/L. *, P<0.05; ****, P<0.0001.
Healthy mice were treated with escalating doses of KL-50 (0, 25, 50, 100, and 200 mg/kg x 1 dose), and monitored over time for changes in both weights and hematologic profiles. […]. […]

[2] = tested on: BJ fibroblast cells (normal cells); experiment: Short-term cell viability, normal fibroblasts; type: cell-based, human; conditions: compared with TMZ
Procedure: FIG. 1B: Short-term viability assay curves for KL-50 in DLD1 MSH6-deficient cells pre-treated with 0.01% DMSO control (CTR) or 10 μM O^6BG (+O^6BG) for 1 h prior to KL-50 addition. […] Short-term viability assay curves for (FIG. 1E) KL-50 in HCT116 MLH1−/−cells or (FIG. 1F) HCT116 cells complemented with chromosome 3 carrying wildtype MLH1 (+Chr3) pre-treated with 0.01% DMSO control or 10 μM O^6BG (+O^6BG) for 1 h prior to KL-50 addition. […] For these figures, points, mean; error bars, SD; n>3 technical replicates.
Short-term Cell Viability Assay. Cells were seeded in 96-well plates at 1000 or 2000 cells/well and allowed to adhere at 23° C. for 60 min and then incubated overnight at 37° C. Cells were treated with indicated concentrations of compounds in triplicate for 4-6 days prior to fixation with 3.7% paraformaldehyde and nuclear staining with 1 μg/mL Hoechst 33342 dye. Cells were imaged on a Cytation 3 imaging reader (BioTek) and quantified using CellProfiler software. For in vitro short-term growth delay experiments, IC50 values were determined from the nonlinear regression equation, [inhibitor] vs normalized response with variable slope.

[3] = tested on: linearized pUC19 plasmid DNA; experiment: In vitro DNA cross-linking assay; type: biochemical; conditions: 100 μM
Procedure: Plasmid Linearization Assay. To set up the linearization reactions, 20 units of EcoRI-HF (New England Biolabs) was mixed with 20 μg 2686 bp pUC19 vector DNA in CutSmart buffer (New England Biolabs), pH 7.9, in a total volume of 1000 μL for 30 min at 37° C. The CutSmart buffer contains 50 mM potassium acetate, 20 mM Tris acetate, 10 mM magnesium acetate, and 100 μg/mL BSA. The reacted DNA was then purified using PCR cleanup kit and quantified using the NanoDrop One (Thermo Fisher). The DNA was then stored at −20° C. before use in in vitro DNA cross-linking assays or melting temperature analysis.
In Vitro DNA Cross-linking Assays. Linearized pUC19 DNA, prepared as described above, was used for in vitro DNA cross-linking assays. For each condition, 200 ng of linearized pUC19 DNA (15.4 μM base pairs) was incubated with the indicated concentration of drug in 20 μL. Drug stock concentrations were made in DMSO such that each reaction contained a fixed 5% DMSO concentration. Reactions were conducted in 100 mM Tris buffer (pH 7.4). Cisplatin (Sigma) and DMSO vehicle were used as positive and negative controls, respectively. Reactions were conducted between 3-96 h at 37° C. The DNA was stored at −80° C. until electrophoretic analysis. For gel electrophoresis, DNA concentration was preadjusted to 10 ng/μL. […]

## NC(=O)c1ncn2c(=O)n(CCF)nnc12 [KL-50]
[1]; 200 mg/kg x 1 dose
  mice observably ill warranting euthanasia: Two of three mice
[1]; 25, 50, 100 mg/kg x 1 dose
  toxicity in remaining cohorts: no evidence of toxicity
[1]; all cohorts, 0-200 mg/kg single dose PO
  complete blood counts day 7: within normal physiological ranges
[1]; escalating single doses
  tolerability, overall: well-tolerated
[1]; single dose 100 or 200 mg/kg, regressed to baseline at the end of one week
  weight loss after treatment administration: greater than 10%
[2]
  cytotoxicity in normal human fibroblast cells: No increase in toxicity
[3]
  ICLs in plasmid DNA: possessed ICLs, with delayed rates of formation
